{"source": "ChEMBL document CHEMBL4304757", "about": "“Synthetic heterocyclic candidates as promising α-glucosidase inhibitors: An overview” (Eur J Med Chem, 2019)", "data": [{"target": "T1, Alpha glucosidase (Homo sapiens, UniProt O43451+P10253+P14410+Q2M2H8)", "assay": "Inhibition of alpha-glucosidase (unknown origin) using p-nitrophenyl-alpha-d-glucopyranoside as substrate preincubated for 15 mins followed by substrate addition measured after 30 mins by spectrophotometric analysis", "assay_type": "protein assay", "units": {"IC50": "µM"}, "values": [{"smiles": "Clc1ccc(Cn2cc(CSc3nc4ccccc4s3)nn2)cc1", "IC50": "20 to 61"}, {"smiles": "Clc1ccc(CSc2nc(-c3ccc(Br)cc3)cc(-c3ccc(Br)cc3)n2)cc1", "IC50": "19 to 38"}, {"smiles": "Fc1cccc(CSc2nc(-c3ccc(Br)cc3)cc(-c3cccc(Br)c3)n2)c1", "IC50": "19 to 38"}, {"smiles": "Fc1ccc(CSc2nc(-c3ccc(Br)cc3)cc(-c3ccc(Br)cc3)n2)cc1", "IC50": "19 to 38"}, {"smiles": "Fc1ccccc1CSc1nc(-c2ccc(Br)cc2)cc(-c2ccc(Br)cc2)n1", "IC50": "19 to 38"}, {"smiles": "Fc1cccc(Cn2cc(CSc3nc4ccccc4s3)nn2)c1", "IC50": "20 to 61"}, {"smiles": "Clc1cc(Cl)cc(Cn2cc(CSc3nc4ccccc4s3)nn2)c1", "IC50": "20 to 61"}, {"smiles": "Cc1ccc(-c2cc(-c3ccc(Br)cc3)nc(SCc3ccc(Cl)cc3)n2)cc1", "IC50": "19 to 38"}, {"smiles": "CC(C)(C)c1ccc(Cn2cc(CSc3nc4ccccc4s3)nn2)cc1", "IC50": "20 to 61"}]}, {"target": "not listed separately", "assay": "Inhibition of yeast alpha-glucosidase using p-nitrophenyl-alpha-d-glucopyranoside as substrate preincubated for 10 mins followed by substrate addition measured after 30 mins", "design": "species or system Saccharomyces cerevisiae", "units": {"IC50": "µM"}, "values": [{"smiles": "Cc1cc2nc(-c3ccc(C(=O)NNC(=S)Nc4ccc(C(F)(F)F)cc4)cc3)[nH]c2cc1C", "IC50": "35 to 297"}, {"smiles": "Cc1cc2nc(-c3ccc(C(=O)N/N=C/c4ccccn4)cc3)[nH]c2cc1C", "IC50": "8.4 to 179"}, {"smiles": "O=c1oc2ccccc2cc1-c1nn(-c2ccccc2)cc1-c1nc(-c2ccccc2)c(-c2ccccc2)n1-c1ccc(Br)cc1", "IC50": "2.5 to 46"}, {"smiles": "Brc1ccc(-c2nn(-c3ccccc3)cc2-c2nc(-c3ccccc3)c(-c3ccccc3)[nH]2)cc1", "IC50": "2.7 to 23"}, {"smiles": "COc1ccc(/C=N/NC(=O)c2ccc(-c3nc4cc(C)c(C)cc4[nH]3)cc2)cc1O", "IC50": "8.4 to 179"}, {"smiles": "O=c1oc2ccc(Br)cc2cc1-c1nn(-c2ccccc2)cc1-c1nc(-c2ccccc2)c(-c2ccccc2)n1-c1ccc(Br)cc1", "IC50": "2.5 to 46"}, {"smiles": "COc1ccc(/C=N/NC(=O)c2ccc(-c3nc4cc(C)c(C)cc4[nH]3)cc2)cc1OC", "IC50": "8.4 to 179"}, {"smiles": "O=[N+]([O-])c1ccc(-c2nn(-c3ccccc3)cc2-c2nc(-c3ccccc3)c(-c3ccccc3)[nH]2)cc1", "IC50": "2.7 to 23"}, {"smiles": "COc1ccc(-c2nn(-c3ccccc3)cc2-c2nc(-c3ccccc3)c(-c3ccccc3)[nH]2)cc1", "IC50": "2.7 to 23"}, {"smiles": "Cc1cc2nc(-c3ccc(C(=O)NNC(=S)Nc4ccc(F)cc4)cc3)[nH]c2cc1C", "IC50": "35 to 297"}, {"smiles": "COc1ccc(O)c(/C=N/NC(=O)c2ccc(-c3nc4cc(C)c(C)cc4[nH]3)cc2)c1", "IC50": "8.4 to 9.9"}, {"smiles": "O=c1oc2ccc(Br)cc2cc1-c1nn(-c2ccccc2)cc1-c1nc(-c2ccccc2)c(-c2ccccc2)[nH]1", "IC50": "2.7 to 23"}, {"smiles": "Cc1cc2nc(-c3ccc(C(=O)N/N=C/c4cccc(O)c4)cc3)[nH]c2cc1C", "IC50": "8.4 to 179"}, {"smiles": "COc1ccc(-n2c(-c3cn(-c4ccccc4)nc3-c3cc4cc(Br)ccc4oc3=O)nc(-c3ccccc3)c2-c2ccccc2)cc1", "IC50": "2.5 to 46"}, {"smiles": "Cc1nn(-c2ccc([N+](=O)[O-])cc2)c(C)c1-c1nc(-c2ccccc2)c(-c2ccccc2)[nH]1", "IC50": "2.7 to 23"}, {"smiles": "Cc1cc2nc(-c3ccc(C(=O)N/N=C/c4ccc(O)c(Br)c4)cc3)[nH]c2cc1C", "IC50": "8.4 to 179"}, {"smiles": "Cc1cc2nc(-c3ccc(C(=O)N/N=C/c4ccc(O)cc4O)cc3)[nH]c2cc1C", "IC50": "8.4 to 9.9"}, {"smiles": "Cc1cc2nc(-c3ccc(C(=O)NNC(=S)Nc4cccc(Br)c4)cc3)[nH]c2cc1C", "IC50": "35 to 297"}, {"smiles": "Cc1cc2nc(-c3ccc(C(=O)NNC(=S)Nc4ccc(Br)cc4)cc3)[nH]c2cc1C", "IC50": "35 to 297"}, {"smiles": "Cc1cc(C)cc(-n2c(-c3cn(-c4ccccc4)nc3-c3cc4ccccc4oc3=O)nc(-c3ccccc3)c2-c2ccccc2)c1", "IC50": "2.5 to 46"}, {"smiles": "Cc1cccc(NC(=S)NNC(=O)c2ccc(-c3nc4cc(C)c(C)cc4[nH]3)cc2)c1", "IC50": "35 to 297"}, {"smiles": "Cc1cc(C)cc(-n2c(-c3cn(-c4ccccc4)nc3-c3cc4cc(Br)ccc4oc3=O)nc(-c3ccccc3)c2-c2ccccc2)c1", "IC50": "2.5 to 46"}, {"smiles": "COc1ccc(/C=N/NC(=O)c2ccc(-c3nc4cc(C)c(C)cc4[nH]3)cc2)c(O)c1", "IC50": "8.4 to 9.9"}, {"smiles": "Cc1cc2nc(-c3ccc(C(=O)N/N=C/c4ccccc4O)cc3)[nH]c2cc1C", "IC50": "8.4 to 179"}, {"smiles": "Cc1cc2nc(-c3ccc(C(=O)NNC(=S)Nc4ccc([N+](=O)[O-])cc4)cc3)[nH]c2cc1C", "IC50": 35}, {"smiles": "Clc1ccc(-c2nn(-c3ccccc3)cc2-c2nc(-c3ccccc3)c(-c3ccccc3)[nH]2)cc1", "IC50": "2.7 to 23"}, {"smiles": "Cc1cc2nc(-c3ccc(C(=O)NNC(=S)Nc4ccc(Cl)cc4)cc3)[nH]c2cc1C", "IC50": "35 to 297"}, {"smiles": "c1ccc(-c2nn(-c3ccccc3)cc2-c2nc(-c3ccccc3)c(-c3ccccc3)[nH]2)cc1", "IC50": "2.7 to 23"}]}, {"target": "T1, Alpha glucosidase", "assay": "Inhibition of alpha-glucosidase (unknown origin) using p-nitrophenyl-alpha-d-glucopyranoside as substrate preincubated for 5 mins followed by substrate addition measured after 5 mins", "assay_type": "protein assay", "units": {"IC50": "nM"}, "values": [{"smiles": "O=[N+]([O-])c1ccc(/C=N/c2nnc(-c3ccc(Cl)cc3)s2)cc1", "IC50": "2300 to 25000"}, {"smiles": "Nc1nnc(-c2ccc(Cl)cc2)s1", "IC50": "2300 to 38000"}, {"smiles": "Nc1nnc(-c2c3ccccc3cc3ccccc23)s1", "IC50": "2300 to 38000"}, {"smiles": "O=C(N/N=C/c1ccc([N+](=O)[O-])cc1)c1cc2ccccc2oc1=O", "IC50": "1100 to 36000"}, {"smiles": "Nc1nnc(-c2ccc(OCc3ccccc3)cc2)s1", "IC50": "2300 to 38000"}, {"smiles": "O=C(N/N=C/c1ccc(O)cc1O)c1cc2ccccc2oc1=O", "IC50": "1100 to 36000"}, {"smiles": "O=C(N/N=C/c1ccccc1O)c1cc2ccccc2oc1=O", "IC50": "1100 to 36000"}, {"smiles": "Nc1nnc(-c2cccc([N+](=O)[O-])c2)s1", "IC50": "2300 to 38000"}, {"smiles": "O=[N+]([O-])c1cccc(-c2nnc(/N=C/c3ccc(Cl)cc3Cl)s2)c1", "IC50": "2300 to 25000"}, {"smiles": "Nc1nnc(-c2ccc(Cl)cc2Cl)s1", "IC50": "2300 to 38000"}, {"smiles": "Clc1ccc(-c2nnc(/N=C/c3ccc(Cl)cc3Cl)s2)cc1", "IC50": "2300 to 25000"}, {"smiles": "Cc1ccccc1/C=N/NC(=O)c1cc2ccccc2oc1=O", "IC50": "1100 to 36000"}, {"smiles": "Cc1ccc(/C=N/NC(=O)c2cc3ccccc3oc2=O)cc1", "IC50": "1100 to 36000"}, {"smiles": "O=[N+]([O-])c1ccccc1/C=N/c1nnc(-c2ccc(Cl)cc2)s1", "IC50": "2300 to 25000"}, {"smiles": "O=C(N/N=C/c1ccccc1F)c1cc2ccccc2oc1=O", "IC50": "1100 to 36000"}, {"smiles": "Nc1nnc(-c2ccc(O)cc2)s1", "IC50": 2300}, {"smiles": "Clc1ccc(-c2nnc(/N=C/c3ccc(OCc4ccccc4)cc3)s2)cc1", "IC50": "2300 to 25000"}, {"smiles": "COc1cc(-c2nnc(/N=C/c3ccc(O)cc3)s2)ccc1OCc1ccccc1", "IC50": "2300 to 25000"}, {"smiles": "O=C(N/N=C/c1cccc(F)c1)c1cc2ccccc2oc1=O", "IC50": "1100 to 36000"}, {"smiles": "Nc1nnc(-c2ccc([N+](=O)[O-])cc2)s1", "IC50": "2300 to 38000"}, {"smiles": "O=C(N/N=C/c1ccc(F)cc1)c1cc2ccccc2oc1=O", "IC50": "1100 to 36000"}, {"smiles": "O=C(N/N=C/c1ccncc1)c1cc2ccccc2oc1=O", "IC50": "1100 to 36000"}, {"smiles": "COc1ccc(Br)cc1/C=N/c1nnc(-c2ccc(Cl)cc2)s1", "IC50": "2300 to 25000"}, {"smiles": "O=C(N/N=C/c1ccccc1)c1cc2ccccc2oc1=O", "IC50": "1100 to 36000"}, {"smiles": "Cc1cccc(/C=N/NC(=O)c2cc3ccccc3oc2=O)c1", "IC50": "1100 to 36000"}, {"smiles": "COc1ccc(Br)cc1/C=N/c1nnc(-c2cccc([N+](=O)[O-])c2)s1", "IC50": "2300 to 25000"}, {"smiles": "O=C(N/N=C/c1cccc(O)c1O)c1cc2ccccc2oc1=O", "IC50": 1100}, {"smiles": "Oc1ccc(/C=N/c2nnc(-c3ccc(Cl)cc3)s2)cc1", "IC50": 2300}, {"smiles": "COc1ccc(/C=N/NC(=O)c2cc3ccccc3oc2=O)cc1", "IC50": "1100 to 36000"}, {"smiles": "Nc1nnc(-c2cc3ccccc3cc2O)s1", "IC50": "2300 to 38000"}, {"smiles": "COc1ccc(O)c(/C=N/NC(=O)c2cc3ccccc3oc2=O)c1", "IC50": "1100 to 36000"}, {"smiles": "O=C(N/N=C/c1ccccc1[N+](=O)[O-])c1cc2ccccc2oc1=O", "IC50": "1100 to 36000"}, {"smiles": "Nc1nnc(-c2ccc(Cl)c(OCc3ccccc3)c2)s1", "IC50": "2300 to 38000"}, {"smiles": "COc1ccc(/C=N/NC(=O)c2cc3ccccc3oc2=O)c(O)c1", "IC50": "1100 to 36000"}, {"smiles": "Nc1nnc(-c2ccccc2[N+](=O)[O-])s1", "IC50": "2300 to 38000"}, {"smiles": "CN(C)c1ccc(-c2nnc(N)s2)cc1", "IC50": "2300 to 38000"}, {"smiles": "COc1cccc(-c2nnc(N)s2)c1OC", "IC50": "2300 to 38000"}, {"smiles": "COc1ccc(Br)cc1-c1nnc(N)s1", "IC50": "2300 to 38000"}, {"smiles": "O=C(N/N=C/c1ccccn1)c1cc2ccccc2oc1=O", "IC50": "1100 to 36000"}]}]}
